Results reported in patent US12351581B2, “Compounds for FGFR inhibition” (Cogent Biosciences, Inc., priority 2023, dated 2025).
Read-outs that look alike come from different tables or passages of the source.

Key:
[1] = target: T1, FGFR2 (Homo sapiens, UniProt P21802); test: FGFR wild type enzyme assay (HTRF KinEASE-TK); format: biochemical; settings: ATP 2 uM
T1 construct: biochemical assays using purified intracellular domains of the respective isoforms; purchased Carna Bioscience 08-134
Experimental: (§1) Activity against FGFR wild type and mutant enzymes were determined in biochemical assays using purified intracellular domains of the respective isoforms using HTRF KinEASE-TK assay technology from CisBio, now PerkinElmer. (Catalogue number 62TK0PEC). Briefly test compounds were tested in 11 point 1:3 serial dilutions, typical final concentration range from 10,000 nM to 0.17 nM. Test compounds were dissolved in DMSO and added to assay plates using acoustic transfer. Enzyme was pre-incubated with test compound for 30 minutes and the assay was initiated by addition of ATP and TK-peptide substrate. After 60 minutes at room temperature the reaction was quenched with detection reagent and incubated for an additional 60 minutes at room temperature. The plates were read using a multimode reader and the emission ratio of 665 nm to 615 nm was determined. This ratio was converted to percent of control (POC). [1-(high control-sample signal)/(high control-low control)]*100. Wells without compound were used to determine high control values and wells without enzyme were used to determine low control values. The POC values were fit using a four-parameter logistic model and the value where the fit curve was equal to 50 POC was reported as the IC50 using the Signals Vitro Vivo software package (PerkinElmer). Final assay conditions were: 50 mM HEPES pH7.5, 10 mM MgCl2, 1 mM EDTA, 0.01% Brij-35, 2 mM MnCl2, 1 mM DTT, and 0.5 uM TK-peptide. The enzyme source, catalogue number, final enzyme concentration, and final ATP concentration can be found in the tables 1-2 below.

[2] = target: FGFR2-WT (Homo sapiens, UniProt P21802); test: Phosphorylated FGFR2-WT (pFGFR2-WT) cell assay, KATOIII cells; format: cell-based; settings: 1 hour incubation, phospho FGFR2 HTRF
Sequence of FGFR2-WT (P21802 430-767 limits assumed): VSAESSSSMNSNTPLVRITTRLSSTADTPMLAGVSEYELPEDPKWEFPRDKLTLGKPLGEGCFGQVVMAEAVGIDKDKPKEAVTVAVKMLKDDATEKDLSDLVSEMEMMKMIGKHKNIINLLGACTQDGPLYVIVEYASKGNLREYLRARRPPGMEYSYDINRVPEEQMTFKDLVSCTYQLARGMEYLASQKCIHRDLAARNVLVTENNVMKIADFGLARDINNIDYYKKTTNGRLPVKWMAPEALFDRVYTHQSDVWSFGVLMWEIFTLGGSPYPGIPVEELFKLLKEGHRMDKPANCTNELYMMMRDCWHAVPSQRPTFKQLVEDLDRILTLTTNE
Experimental: KATOIII cells were grown in the appropriate growth medium, IMDM supplemented with 20% fetal bovine serum. Cells were seeded into a 384-well at 1×10^5 cells/25 μL/well. Cells were treated with compound using three-fold serial dilutions at final concentrations ranging from 10 μM to 0.5 nM. Compound was incubated on cells for 1 hour at 37° C., 5% CO2.
Following the 1-hour incubation with compounds, cell lysates were prepared and phospho FGFR2 was measured using the HTRF Phospho-FGFR2 (TYR653/654) Detection Kits (CisBio, cat #64FGFR2Y6PEG). 8 μL of cell lysis buffer (4×) supplied with 1× Phospho and Total protein blocking reagent (CisBio, cat #64FGFR2Y6PEG, CisBio, cat #64KB1AAC) was then added to the wells. Cells were incubated with lysis buffer for 40 minutes at 4° C. under shaking conditions. Plates were centrifuged at 1500 rpm for 3 min and then 16 μL of cell lysate was transferred from the cell-culture plate to a small volume detection plate with the added premixed antibody solutions (4 μL) (CisBio, cat #64FGFR2Y6PEG). Plates were centrifuged at 1000 rpm for 1 min then incubated at 25° C. for 120 min, then overnight at 4° C. Plates were read on the En Vision multimode plate reader via HTRF dual wavelength detection. One hundred percent of control (POC) was determined using DMSO treated samples, and 0 POC was determined using the top concentration of a control compound. A 4-parameter logistic curve was fit to the POC values as a function of compound concentration to determine the IC50 value.

[3] = target: T2, FGFR2 N549H (Homo sapiens, UniProt P21802, N549H); test: FGFR mutant enzyme assay (HTRF KinEASE-TK); format: biochemical; settings: ATP 0.9 uM
T2 construct: biochemical assays using purified intracellular domains of the respective isoforms; purchased Carna Bioscience 08-532
T2 sequence (P21802 399-821 N549H limits assumed): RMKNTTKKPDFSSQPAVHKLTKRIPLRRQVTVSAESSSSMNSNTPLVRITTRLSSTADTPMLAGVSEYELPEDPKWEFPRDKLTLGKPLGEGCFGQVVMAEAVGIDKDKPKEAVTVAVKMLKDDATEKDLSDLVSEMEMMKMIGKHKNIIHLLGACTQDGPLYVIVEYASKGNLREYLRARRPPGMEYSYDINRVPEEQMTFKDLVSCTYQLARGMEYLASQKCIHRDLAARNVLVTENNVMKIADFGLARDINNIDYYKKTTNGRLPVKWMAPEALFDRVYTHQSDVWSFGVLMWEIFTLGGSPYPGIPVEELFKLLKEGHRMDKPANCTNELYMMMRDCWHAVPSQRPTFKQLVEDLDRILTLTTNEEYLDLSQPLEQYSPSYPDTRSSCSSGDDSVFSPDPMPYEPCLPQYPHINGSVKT
Experimental: as §1

[4] = target: T3, FGFR2 V564F (Homo sapiens, UniProt P21802, V564F); test: FGFR mutant enzyme assay (HTRF KinEASE-TK); format: biochemical; settings: ATP 1.5 uM
T3 construct: biochemical assays using purified intracellular domains of the respective isoforms; purchased SignalChem Biotech F05-12FG
T3 sequence (P21802 399-821 V564F limits assumed): as the sequence (P21802 399-821 N549H limits assumed) above, with H151N, V166F counted along it
Experimental: as §1

[5] = target: T4, FGFR2 V564I (Homo sapiens, UniProt P21802, V564I); test: FGFR mutant enzyme assay (HTRF KinEASE-TK); format: biochemical; settings: ATP 0.4 uM
T4 construct: biochemical assays using purified intracellular domains of the respective isoforms; purchased Carna Bioscience 08-546
T4 sequence (P21802 399-821 V564I limits assumed): as the sequence (P21802 399-821 N549H limits assumed) above, with H151N, V166I counted along it
Experimental: as §1

[6] = compound table after the examples, read-out: Enz FGFR2

T1 sequence (P21802 399-821 limits assumed): as the sequence (P21802 399-821 N549H limits assumed) above, with H151N counted along it

IC50 ([1]; Table 3, read-out: FGFR2 Enz) [nM]	IC50 [1, 6] [nM]	IC50 [2] [nM]	IC50 [3] [nM]	IC50 [4] [nM]	IC50 [5] [nM]	Compound
3	3	23	5	11	17	Cc1c(-c2cc(O[C@H](C)c3ccc(F)cn3)c3c(C#N)cnn3c2)cnn1C[C@H](O)CO [Compound 27, 6-(1-((S)-2,3-dihydroxypropyl)-5-methyl-1H-pyrazol-4-yl)-4-((R)-1-(5-fluoropyridin-2-yl)ethoxy)pyrazolo[1,5-a]pyridine-3-carbonitrile]
3	3	17	5	10	12	Cc1nn(C[C@H](O)CO)cc1-c1cc(O[C@H](C)c2ccc(F)cn2)c2c(C#N)cnn2c1 [Compound 28, 6-(1-((S)-2,3-dihydroxypropyl)-3-methyl-1H-pyrazol-4-yl)-4-((R)-1-(5-fluoropyridin-2-yl)ethoxy)pyrazolo[1,5-a]pyridine-3-carbonitrile]
0.3	0.3	4	0.6	1.4	1.5	C[C@@H](Oc1cc(-c2cnn([C@H]3CCCNC3)c2N)cn2ncc(C#N)c12)c1ccc(F)cn1 [Compound 29, 6-(5-amino-1-((S)-piperidin-3-yl)-1H-pyrazol-4-yl)-4-((R)-1-(5-fluoropyridin-2-yl)ethoxy)pyrazolo[1,5-a]pyridine-3-carbonitrile]
1	1	9	2	3.7	6	C[C@@H](Oc1cc(-c2cnn(C)c2N)cn2ncc(C#N)c12)c1ccc(F)cn1 [Compound 30, (R)-6-(5-amino-1-methyl-1H-pyrazol-4-yl)-4-(1-(5-fluoropyridin-2-yl)ethoxy)pyrazolo[1,5-a]pyridine-3-carbonitrile]
1	1	7	2	5	5.6	C[C@@H](Oc1cc(-c2cnn(CCO)c2N)cn2ncc(C#N)c12)c1ccc(F)cn1 [Compound 31, (R)-6-(5-amino-1-(2-hydroxyethyl)-1H-pyrazol-4-yl)-4-(1-(5-fluoropyridin-2-yl)ethoxy)pyrazolo[1,5-a]pyridine-3-carbonitrile]
0.4	0.4	2.5	0.3	1	1	C[C@@H](Oc1cc(-c2cnn([C@H]3CC[C@H](O)CC3)c2N)cn2ncc(C#N)c12)c1ccc(F)cn1 [Compound 32, 6-(5-amino-1-((1r,4R)-4-hydroxycyclohexyl)-1H-pyrazol-4-yl)-4-((R)-1-(5-fluoropyridin-2-yl)ethoxy)pyrazolo[1,5-a]pyridine-3-carbonitrile]
1	1	6	0.7	2	3	Cc1c(-c2cc(O[C@H](C)c3ccc(F)cn3)c3c(C#N)cnn3c2)cnn1C1CCS(=O)(=O)CC1 [Compound 33, (R)-6-(1-(1,1-dioxidotetrahydro-2H-thiopyran-4-yl)-5-methyl-1H-pyrazol-4-yl)-4-(1-(5-fluoropyridin-2-yl)ethoxy)pyrazolo[1,5-a]pyridine-3-carbonitrile]
2.6	2.6	17	3	10	12	C[C@@H](Oc1cc(-c2nnn(C)c2N)cn2ncc(C#N)c12)c1ccc(F)cn1 [Compound 34, (R)-6-(5-amino-1-methyl-1H-1,2,3-triazol-4-yl)-4-(1-(5-fluoropyridin-2-yl)ethoxy)pyrazolo[1,5-a]pyridine-3-carbonitrile]
1	1	5	1	2	2.7	C[C@@H](Oc1cc(-c2cnn(C)c2N)cn2ncc(C#N)c12)c1ccccn1 [Compound 35, (R)-6-(5-amino-1-methyl-1H-pyrazol-4-yl)-4-(1-(pyridin-2-yl)ethoxy)pyrazolo[1,5-a]pyridine-3-carbonitrile]
0.4	0.4	4	0.5	1.5	2	CC(=O)N[C@H]1CC[C@H](n2ncc(-c3cc(O[C@H](C)c4ccc(F)cn4)c4c(C#N)cnn4c3)c2C)CC1 [Compound 36, N-((1R,4r)-4-(4-(3-cyano-4-((R)-1-(5-fluoropyridin-2-yl)ethoxy)pyrazolo[1,5-a]pyridin-6-yl)-5-methyl-1H-pyrazol-1-yl)cyclohexyl)acetamide]
0.5	0.5	5.6	0.3	1	1.6	Cc1c(-c2cc(O[C@H](C)c3ccc(F)cn3)c3c(C#N)cnn3c2)cnn1[C@H]1CCCN(C[C@H](O)CO)C1 [Compound 37, 6-(1-((S)-1-((S)-2,3-dihydroxypropyl)piperidin-3-yl)-5-methyl-1H-pyrazol-4-yl)-4-((R)-1-(5-fluoropyridin-2-yl)ethoxy)pyrazolo[1,5-a]pyridine-3-carbonitrile]
0.4	0.4	6	0.3	1	1.3	Cc1c(-c2cc(O[C@H](C)c3ccc(F)cn3)c3c(C#N)cnn3c2)cnn1[C@H]1CCCN(C(CO)CO)C1 [Compound 38, 6-(1-((S)-1-(1,3-dihydroxypropan-2-yl)piperidin-3-yl)-5-methyl-1H-pyrazol-4-yl)-4-((R)-1-(5-fluoropyridin-2-yl)ethoxy)pyrazolo[1,5-a]pyridine-3-carbonitrile]
0.5	0.5	5.5	0.4	1	1	Cc1c(-c2cc(O[C@H](C)c3ccc(F)cn3)c3c(C#N)cnn3c2)cnn1C1CCN(C[C@H](O)CO)CC1 [Compound 39, 6-(1-(1-((S)-2,3-dihydroxypropyl)piperidin-4-yl)-5-methyl-1H-pyrazol-4-yl)-4-((R)-1-(5-fluoropyridin-2-yl)ethoxy)pyrazolo[1,5-a]pyridine-3-carbonitrile]
1	1	6.7	0.6	2	3	Cc1c(-c2cc(O[C@H](C)c3ccc(F)cn3)c3c(C#N)cnn3c2)cnn1[C@H]1CCCN(C(=O)C2(O)CCC2)C1 [Compound 40, 4-((R)-1-(5-fluoropyridin-2-yl)ethoxy)-6-(1-((S)-1-(1-hydroxycyclobutane-1-carbonyl)piperidin-3-yl)-5-methyl-1H-pyrazol-4-yl)pyrazolo[1,5-a]pyridine-3-carbonitrile]
0.5	0.5	4	0.7	2	2	Cc1c(-c2cc(O[C@H](C)c3ccc(F)cn3)c3c(C#N)cnn3c2)cnn1C1CCN(C(=O)[C@H](C)O)CC1 [Compound 41, 4-((R)-1-(5-fluoropyridin-2-yl)ethoxy)-6-(1-(1-((S)-2-hydroxypropanoyl)piperidin-4-yl)-5-methyl-1H-pyrazol-4-yl)pyrazolo[1,5-a]pyridine-3-carbonitrile]
